According to US9863966B2 (priority 2012, dated 2018):

Assays:
[1] = system: monoclonal antibody from hybridoma cell line NM4.3F5.C10.B7.B2.B2.C4; format: binding, sheep
[2] = cited from earlier work
[3] = cited from earlier work; for plasma elimination half-life: Demerol Prescribing Information datasheet; for half-life: Latta et al., 2002
[4] = cited from earlier work; remark: listed apart in the source

O=C(O)C(O)C(O)C(=O)O.Oc1ccc2c(c1)[C@@]13CCCC[C@@]1(O)[C@@H](C2)N(CC1CCC1)CC3 [Butorphanol Tartrate]
% Cross Reactivity [1]: <1%

COc1ccc2c3c1O[C@H]1[C@@H](O)C=C[C@H]4[C@@H](C2)N(C)CC[C@@]341 [Codeine]
% Cross Reactivity [1]: <1%

CCO[C@@H]1O[C@H](C(=O)O)[C@@H](O)[C@H](O)[C@H]1O [Ethyl-Glucuronide]
% Cross Reactivity [1]: <1%

COc1ccc2c3c1O[C@H]1C(=O)CC[C@H]4[C@@H](C2)N(C)CC[C@]314 [Hydrocodone]
% Cross Reactivity [1]: <1%

CN1CC[C@]23CCCC[C@H]2[C@H]1Cc1ccc(O)cc13 [Levorphanol]
% Cross Reactivity [1]: <1%

CCOC(=O)C1(c2ccccc2)CCN(C)CC1 [Meperidine]
% Cross Reactivity [1]: 102.5%
potency compared to morphine (times less potent) ([2]; Latta et al., 2002): 7-10 times
eliminated in the form of normeperidine ([3]; Baselt, 2008): around 17%
excreted unchanged in urine ([3]; Baselt, 2008): About 7%
plasma elimination half-life [3]: 3 to 4 h
half-life [3]: 3 to 6 h
fraction reaching systematic circulation (first-pass metabolism) ([3]; in vivo): around 50%
time of peak plasma concentrations after administration ([3]; intramuscular injection): 1 to 2 h
administered dose excreted in urine ([3]; within 24 hours, Moffat et al., 2003): Approximately 70%
daily dose reported to cause grand mal seizures ([4]; as low as, Latta et al., 2002): ≥ 260 mg
dose reported as causing muscle twitches or tremors ([4]; as low as, Latta et al., 2002): ≥ 46 mg per day

CCCC(C)(COC(N)=O)COC(N)=O [Meprobamate]
% Cross Reactivity [1]: <1%

CCC(=O)C(CC(C)N(C)C)(c1ccccc1)c1ccccc1 (stereo not shown) [Methadone]
% Cross Reactivity [1]: <1%

Oc1ccc2c3c1O[C@H]1[C@@H](O)CC[C@@]4(O)[C@@H](C2)N(CC2CCC2)CC[C@]314 [Nalbuphine]
% Cross Reactivity [1]: <1%

NC1(c2ccccc2Cl)CCCCC1=O (stereo not shown) [Norketamine]
% Cross Reactivity [1]: <1%

CCOC(=O)C1(c2ccccc2)CCNCC1 [Normeperidine]
% Cross Reactivity [1]: 100%
IC50 (antibody sensitivity) [1]: about 0.5 ng/ml
analgesic effectiveness relative to parent compound ([2]; relative to meperidine): half as effective
plasma elimination half-life [3]: 15 to 20 h
half-life [3]: 14 to 48 h
convulsant activity relative to parent compound ([4]; relative to meperidine): more active as a convulsant
neurotoxic potential relative to parent compound ([4]; relative to meperidine): up to 3 times

COc1ccc2c3c1O[C@H]1C(=O)CC[C@@]4(O)[C@@H](C2)N(C)CC[C@]314 [Oxycodone]
% Cross Reactivity [1]: <1%

CN1CC[C@]23c4c5ccc(O)c4O[C@H]2C(=O)CC[C@@]3(O)[C@H]1C5 [Oxymorphone]
% Cross Reactivity [1]: <1%

CC(C)=CCN1CCC2(C)c3cc(O)ccc3CC1C2C (stereo not shown) [Pentazocine]
% Cross Reactivity [1]: <1%

O=C(O)[C@H]1O[C@@H](OCC(Cl)(Cl)Cl)[C@H](O)[C@@H](O)[C@@H]1O [Urochloralic Acid]
% Cross Reactivity [1]: <1%

CCN(C(C)=O)c1cccc(-c2ccnc3c(C#N)cnn23)c1 [Zaleplon]
% Cross Reactivity [1]: <1%

Cc1ccc(-c2nc3ccc(C)cn3c2CC(=O)N(C)C)cc1 [Zolpidem]
% Cross Reactivity [1]: <1%

CN1CCN(C(=O)OC2c3nccnc3C(=O)N2c2ccc(Cl)cn2)CC1 (stereo not shown) [Zopiclone]
% Cross Reactivity [1]: <1%
